In ChEMBL document CHEMBL1287811, “Two new cytotoxic labdane diterpenes from the rhizomes of Hedychium coronarium” (2010):

What was measured:
Format in all cases: functional
[1] = system: A549; assay: Growth inhibition of human A549 cells by Sulforhodamine B assay; conditions: for CC50: read-out: LC50 (the source's name)
[2] = system: SK-N-SH; assay: Growth inhibition of human SK-N-SH cells by Sulforhodamine B assay
[3] = system: MCF7; assay: Growth inhibition of human MCF7 cells by Sulforhodamine B assay
[4] = system: HeLa; assay: Growth inhibition of human HeLa cells by Sulforhodamine B assay

Row | SMILES | GI50 [1] | CC50 [1] | GI50 [2] | LC50 [2] | GI50 [3] | LC50 (concentration killing 50% of cells) [3] | GI50 [4] | LC50 [4]
1 | CC1(C)CCC[C@]2(C)[C@@H](/C=C/C3=CCOC3=O)C(C=O)=CC(=O)[C@@H]12 | 18.5 µM | 45.9 µM | 38.7 µM | 48.5 µM | 69.9 µM | > 100 µM | 76.9 µM | > 100 µM
2 | CC1(C)CCC[C@]2(C)[C@@H](/C=C/C3=CC(=O)OC3)C(CO)=C(O)C(=O)[C@@H]12 | 26 µM | 48.7 µM | 12.1 µM | 19.3 µM | 12 µM | 15.4 µM | 79.7 µM | > 100 µM
3 | CC1=CC(=O)[C@H]2C(C)(C)CCC[C@]2(C)[C@H]1/C=C/C1=CCOC1=O | 21.7 µM | 39.6 µM | 8.2 µM | 20.8 µM | 15.7 µM | 19.8 µM | 83.6 µM | > 100 µM
4 | CC1=CC(=O)[C@H]2C(C)(C)CCC[C@]2(C)C1/C=C/C1=CC(O)OC1=O (some centres not stated) | 10.6 µM | 21.2 µM | 17.5 µM | 22.8 µM | 28.5 µM | 34.8 µM | > 100 µM | > 100 µM
5 | COc1cc(/C=C/C=O)ccc1O [CONIFERYL ALDEHYDE] | 1.7 µM | 11.4 µM | 10.6 µM |  | 39.5 µM |  | 61.8 µM | 
6 | C=C1CC[C@H]2C(C)(C)CCC[C@]2(C)[C@H]1CCC1=CC(O)OC1=O (some centres not stated) [CORONARIN C] | 4.8 µM | 9.5 µM | 25.8 µM | 33.7 µM | 32.6 µM | 40.7 µM | 36.3 µM | 45.9 µM
7 | C=C1CC[C@H]2C(C)(C)CCC[C@]2(C)[C@H]1C/C=C1/CC(OC)OC1=O (some centres not stated) [CORONARIN D METHYL ETHER] | 30 µM | 71.3 µM | 13.6 µM | 19.1 µM | 25.3 µM | 31.6 µM | > 100 µM | > 100 µM
8 | C=C1CC[C@H]2C(C)(C)CCC[C@]2(C)[C@H]1C/C=C1/CC(O)OC1=O (some centres not stated) [CORONARIN D] | 8 µM | 14 µM | 20.1 µM | 32 µM | 17.4 µM | 21.9 µM | 47 µM | 60.6 µM
9 | CC(C)(O)C1CC[C@@]2(C)CCC[C@@](C)(O)[C@@H]2C1 (some centres not stated) [CRYPTOMERIDIOL] | 14.5 µM | 27.4 µM | 73.6 µM |  | 62.3 µM |  | 75.6 µM | 
10 | CCOC(=O)/C=C/c1ccc(O)c(OC)c1 [ETHYL FERULATE] | 1.2 µM | 5.8 µM | 22.3 µM |  | 86.3 µM |  | 52.8 µM | 
11 | CC1=CC(=O)[C@H]2C(C)(C)CCC[C@]2(C)[C@H]1/C=C/c1ccoc1 [HEDYCHENONE] | 7.4 µM | 14 µM | 11.6 µM | 17.2 µM | 14.9 µM | 19.8 µM | 63.2 µM | 81.5 µM
12 | COC(=O)Nc1nc2cc(C(=O)c3cccs3)ccc2[nH]1 [NOCODAZOLE] | < 0.1 µM | < 0.1 µM | 0.66 µM |  | < 0.1 µM |  | 0.75 µM | 
13 | C=C1C(C/C=C2\COC(=O)C2)[C@@]2(C)CCCC(C)(C)[C@@H]2C[C@@H]1O (some centres not stated) [PACOVATININ A] | 15.1 µM | 36.2 µM | 54.8 µM | 59.9 µM | 44.7 µM | 55.6 µM | 62.1 µM | 80.7 µM
